Reference: patent US10105357B2, “Indication of antibiotic drugs for preparation of cancer inhibition pharmaceutical composition” (LAUNX BIOMEDICAL CO., LTD., priority 2014, dated 2018)
Like-named read-outs stand apart in the source and are kept apart here.

Columns and labels:
[1] = system: AGS (Gastric Adenocarcinoma); test: Cell viability analysis, gastric cancer AGS; type: cell-based, human; conditions: for viability at 10 µM: Homo sapiens, 72 h
[2] = system: MKN-45 (Gastric Adenocarcinoma); test: Cell viability analysis, gastric cancer MKN-45; type: cell-based, human; conditions: for viability at 10 µM: Homo sapiens, MKN-45, 72 h
[3] = system: HepG2 (Hepatocellular Carcinoma); test: Cell viability analysis, hepatic cancer HepG2; type: cell-based, human; conditions: for viability at 10 µM: Homo sapiens, HepG2, 72 h
[4] = system: Hep3B (hepatocellular carcinoma); test: Cell viability analysis, hepatic cancer Hep3B; type: cell-based, human; conditions: Hep3B, repeated experiment
[5] = system: LoVo (Colorectal Adenocarcinoma); test: Cell viability analysis, colon cancer LoVo; type: cell-based, human; conditions: LoVo, repeated experiment
[6] = system: BCC (basal cell carcinoma); test: Cell viability analysis, skin cancer BCC; type: cell-based, human; conditions: BCC, repeated experiment
[7] = system: C-33A (Cervical carcinoma); test: Cell viability analysis, cervical cancer C-33A; type: cell-based, human; conditions: C-33A; repeated experiment
[8] = system: PC3 (p53−) (Prostate Adenocarcinoma); test: Cell viability analysis, prostate cancer PC3; type: cell-based, human; conditions: for viability at 10 µM: Homo sapiens, 72 h
[9] = system: TSGH-8301 (Urinary Bladder Carcinoma); test: Cell viability analysis, bladder cancer TSGH-8301; type: cell-based, human; conditions: for viability at 10 µM: Homo sapiens, 72 h
T24 = test: Cell viability analysis, bladder cancer T24; type: cell-based, human; conditions: T24, repeated experiment
[10] = system: MCF7 (Mammary Gland, Adenocarcinoma); test: Cell viability analysis, breast cancer MCF7; type: cell-based, human; conditions: for viability at 10 µM: Homo sapiens, MCF7, 72 h
[11] = system: MDA-MB-231 (Mammary Gland, Adenocarcinoma); test: Cell viability analysis, breast cancer MDA-MB-231; type: cell-based, human; conditions: MDA-MB231, repeated experiment
NIH: OVCAR-3 = test: Cell viability analysis, ovarian cancer NIH: OVCAR-3; type: cell-based, human; conditions: NIH-OVCAR-3, repeated experiment
TOV-21G = test: Cell viability analysis, ovarian cancer TOV-21G; type: cell-based, human; conditions: TOV-21G, repeated experiment
[12] = system: SAS (Tongue squamous cell carcinoma); test: Cell viability analysis, tongue cancer SAS; type: cell-based, human; conditions: SAS, repeated experiment
U-2OS = test: Cell viability analysis, osteosarcoma U-2OS; type: cell-based, human; conditions: U2OS, repeated experiment
[13] = system: 786-O (Renal adenocarcinoma); test: Cell viability analysis, renal cancer 786-O; type: cell-based, human; conditions: 786-O, repeated experiment
[14] = system: HCT116 (p53+) (Colorectal Carcinoma)
cancer cell lines = test: Cell viability analysis (WST-1) on cancer cell lines; type: cell-based, human; conditions: drug 10 μM, 72 hours, WST-1; Table 3
[15] = system: HI650 (Lung Adenocarcinoma); test: Cell viability analysis, lung cancer HI650; type: cell-based, human; conditions: Homo sapiens, NCI-H1650, 72 h
[16] = system: A549 (Lung Adenocarcinoma); test: Cell viability analysis, lung cancer A549; type: cell-based, human; conditions: Homo sapiens, A549, 72 h
[17] = system: A375 (Amelanotic Melanoma); test: Cell viability analysis, skin cancer A375; type: cell-based, human; conditions: Homo sapiens, A-375, 72 h
[18] = system: HeLa (Cervix Adenocarcinoma); test: Cell viability analysis, cervical cancer HeLa; type: cell-based, human; conditions: Homo sapiens, HeLa, 72 h, HeLa; repeated experiment; read-out: The results of antibiotic drug inhibiting cancer cell lines (cell viability analysis), HeLa
BxPC-3 = test: Cell viability analysis, pancreatic cancer BxPC-3; type: cell-based, human; conditions: Homo sapiens, 72 h; BxPC-3; repeated experiment; read-out: The results of antibiotic drug inhibiting cancer cell lines (cell viability analysis), BxPC-3
AsPC-1 = test: Cell viability analysis, pancreatic cancer AsPC-1; type: cell-based, human; conditions: Homo sapiens, ASPC1, 72 h; AsPC-1; repeated experiment; read-out: The results of antibiotic drug inhibiting cancer cell lines (cell viability analysis), AsPC-1
[19] = system: HL-60 (Acute Promyelocytic Leukemia); test: Cell viability analysis, leukemia HL-60; type: cell-based, human; conditions: Homo sapiens, HL-60, 72 h, drug 10 μM, 72 hours, WST-1, OD450 nm; read-out: cell viability (survival rate), HL-60

SMILES: CN[C@H](CC(C)C)C(=O)N[C@H]1C(=O)N[C@@H](CC(N)=O)C(=O)N[C@H]2C(=O)N[C@H]3C(=O)N[C@H](C(=O)N[C@H](C(=O)O)c4cc(O)cc(O)c4-c4cc3ccc4O)[C@H](O)c3ccc(c(Cl)c3)Oc3cc2cc(c3O[C@@H]2O[C@H](CO)[C@@H](O)[C@H](O)[C@H]2O[C@H]2C[C@](C)(N)[C@H](O)[C@H](C)O2)Oc2ccc(cc2Cl)[C@H]1O.Cl [Vancomycin HCl (Vancocin)]
- The results of antibiotic drug inhibiting cancer cell lines (cell viability analysis), AGS ([1]; AGS, repeated experiment): 108.9
- The results of antibiotic drug inhibiting cancer cell lines (cell viability analysis), MKN-45 ([2]; MKN-45, repeated experiment): 116.9
- The results of antibiotic drug inhibiting cancer cell lines (cell viability analysis), HepG2 ([3]; HepG2, repeated experiment): 92.06
- The results of antibiotic drug inhibiting cancer cell lines (cell viability analysis), Hep3B [4]: 94.6
- The results of antibiotic drug inhibiting cancer cell lines (cell viability analysis), LoVo [5]: 101
- The results of antibiotic drug inhibiting cancer cell lines (cell viability analysis), BCC [6]: 96.78
- The results of antibiotic drug inhibiting cancer cell lines (cell viability analysis), C-33A [7]: 100.6
- The results of antibiotic drug inhibiting cancer cell lines (cell viability analysis), PC-3 ([8]; PC-3, repeated experiment): 104.2
- The results of antibiotic drug inhibiting cancer cell lines (cell viability analysis), TSGH-8301 ([9]; TSGH-8301, repeated experiment): 118
- The results of antibiotic drug inhibiting cancer cell lines (cell viability analysis), T24 (T24): 95.32
- The results of antibiotic drug inhibiting cancer cell lines (cell viability analysis), MCF-7 ([10]; MCF-7, repeated experiment): 91.83
- The results of antibiotic drug inhibiting cancer cell lines (cell viability analysis), MDA-MB231 [11]: 90.26
- The results of antibiotic drug inhibiting cancer cell lines (cell viability analysis), NIH-OVCAR-3 (NIH: OVCAR-3): 105.6
- The results of antibiotic drug inhibiting cancer cell lines (cell viability analysis), TOV-21G (TOV-21G): 97.4
- The results of antibiotic drug inhibiting cancer cell lines (cell viability analysis), SAS [12]: 102
- The results of antibiotic drug inhibiting cancer cell lines (cell viability analysis), U2OS (U-2OS): 62.87
- The results of antibiotic drug inhibiting cancer cell lines (cell viability analysis), 786-O [13]: 102.3
- viability [14]: 94.8%

SMILES: CC(C)c1nc(N(C)S(C)(=O)=O)nc(-c2ccc(F)cc2)c1/C=C/[C@@H](O)C[C@@H](O)CC(=O)O [Rosuvastatin calcium (Crestor), Rosuvastatin calcium]
- inhibition effect on different cancer cell lines (cancer cell lines): significant inhibition effect
- viability at 10 µM ([15]; H1650, repeated experiment, read-out: The results of antibiotic drug inhibiting cancer cell lines (cell viability analysis), H1650): 76.7%
- viability at 10 µM ([15]; drug 10 μM, 72 hours, WST-1, OD450 nm, read-out: cell viability (survival rate), H1650): 80.8%
- viability at 10 µM ([16]; A549, repeated experiment, read-out: The results of antibiotic drug inhibiting cancer cell lines (cell viability analysis), A549): 95.1%
- viability at 10 µM ([16]; drug 10 μM, 72 hours, WST-1, OD450 nm, read-out: cell viability (survival rate), A549): 97%
- viability at 10 µM ([1]; AGS, repeated experiment, read-out: The results of antibiotic drug inhibiting cancer cell lines (cell viability analysis), AGS): 104%
- viability at 10 µM ([1]; drug 10 μM, 72 hours, WST-1, OD450 nm, read-out: cell viability (survival rate), AGS): 55.9%
- viability at 10 µM ([2]; MKN-45, repeated experiment, read-out: The results of antibiotic drug inhibiting cancer cell lines (cell viability analysis), MKN-45): 110%
- viability at 10 µM ([2]; drug 10 μM, 72 hours, WST-1, OD450 nm, read-out: cell viability (survival rate), MKN-45): 83.8%
- viability at 10 µM ([3]; HepG2, repeated experiment, read-out: The results of antibiotic drug inhibiting cancer cell lines (cell viability analysis), HepG2): 108%
- viability at 10 µM ([3]; drug 10 μM, 72 hours, WST-1, OD450 nm, read-out: cell viability (survival rate), HepG2): 73.7%
- viability at 10 µM ([4]; Homo sapiens, 72 h, read-out: The results of antibiotic drug inhibiting cancer cell lines (cell viability analysis), Hep3B): 109%
- viability at 10 µM ([5]; Homo sapiens, 72 h, read-out: The results of antibiotic drug inhibiting cancer cell lines (cell viability analysis), LoVo): 103%
- viability at 10 µM ([17]; A375, repeated experiment, read-out: The results of antibiotic drug inhibiting cancer cell lines (cell viability analysis), A375): 105%
- viability at 10 µM ([17]; drug 10 μM, 72 hours, WST-1, OD450 nm, read-out: cell viability (survival rate), A375): 55.6%
- viability at 10 µM ([6]; Homo sapiens, 72 h, read-out: The results of antibiotic drug inhibiting cancer cell lines (cell viability analysis), BCC): 104%
- viability at 10 µM [18]: 97.1%
- viability at 10 µM ([8]; PC-3, repeated experiment, read-out: The results of antibiotic drug inhibiting cancer cell lines (cell viability analysis), PC-3): 95.7%
- viability at 10 µM ([8]; drug 10 μM, 72 hours, WST-1, OD450 nm, read-out: cell viability (survival rate), PC3): 94.3%
- viability at 10 µM ([9]; TSGH-8301, repeated experiment, read-out: The results of antibiotic drug inhibiting cancer cell lines (cell viability analysis), TSGH-8301): 113%
- viability at 10 µM ([9]; drug 10 μM, 72 hours, WST-1, OD450 nm, read-out: cell viability (survival rate), TSGH): 56%
- viability at 10 µM (T24; Homo sapiens, T-24, 72 h, read-out: The results of antibiotic drug inhibiting cancer cell lines (cell viability analysis), T24): 75.9%
- viability at 10 µM ([10]; MCF-7, repeated experiment, read-out: The results of antibiotic drug inhibiting cancer cell lines (cell viability analysis), MCF-7): 85.9%
- viability at 10 µM ([10]; drug 10 μM, 72 hours, WST-1, OD450 nm, read-out: cell viability (survival rate), MCF7): 88.9%
- viability at 10 µM ([11]; Homo sapiens, MDA-MB-231, 72 h, read-out: The results of antibiotic drug inhibiting cancer cell lines (cell viability analysis), MDA-MB231): 90.2%
- viability at 10 µM (BxPC-3): 65.5%
- viability at 10 µM (AsPC-1): 80.2%
- viability at 10 µM (NIH: OVCAR-3; Homo sapiens, 72 h, read-out: The results of antibiotic drug inhibiting cancer cell lines (cell viability analysis), NIH-OVCAR-3): 102%
- viability at 10 µM (TOV-21G; Homo sapiens, TOV21G, 72 h, read-out: The results of antibiotic drug inhibiting cancer cell lines (cell viability analysis), TOV-21G): 80.4%
- viability at 10 µM ([12]; Homo sapiens, 72 h, read-out: The results of antibiotic drug inhibiting cancer cell lines (cell viability analysis), SAS): 93.3%
- viability at 10 µM (U-2OS; Homo sapiens, 72 h, read-out: The results of antibiotic drug inhibiting cancer cell lines (cell viability analysis), U2OS): 102%
- viability at 10 µM ([13]; Homo sapiens, 786-0, 72 h, read-out: The results of antibiotic drug inhibiting cancer cell lines (cell viability analysis), 786-O): 92.5%
- viability at 10 µM [19]: 81.7%
- viability [14]: 85.6%
